# Legend:
# [1] = tested on: Contingent Negative Variation (CNV), electric potential of the brain; assay: Contingent Negative Variation (CNV) measurement while inhaling the aroma sample; type: in vivo, human; details: for Stimulative or sedative effect by CNV (FIG. 1): 1% ethanol solution of each sample, 5 healthy adult women, over 100% of CNV = stimulative, less than 100% = sedative
# Protocol: First of all, the test method of this invention is explained. The change of negative electric potential of brain called Contingent Negative Variation (CNV) was measured. CNV is the gradual fluctuation of electric potential of the brain. It is related to the fluctuation of the mental process and the conscious level such as an attention, expectation and anticipation.
# An experiment to study perfume effects was as follows. After two seconds from a warning sound stimulation, a starting signal light of an exercise is turned on. Then, as soon as light is observed, the pushing button behavior is demanded as exercise reaction. In this series of steps, a sample of aroma is located at 10cm before nose tip. The aroma can be always recognized along with breathing. A recording electrode for the CNV measurement is fixed to the frontal region of the head. An electric potential between the frontal region and ear lobe is measured.
# The fluctuation area of this section is expressed as comparative percentage (%) to 100% of blank (odorless stimulation). Also, aroma was presented in accordance with Latin square method.
# [2] = tested on: Contingent Negative Variation (CNV), electric potential of the brain; details: administered drug; reported in the literature; cited from earlier work
SMILES,Stimulative or sedative effect by CNV (FIG. 1) [1],Change of amplitude of CNV after administration [2],other results
"COc1cc(C)cc(OC)c1 [DMB, 1,3-dimethoxy-5-methylbenzene]",sedative effect,,
CC=Cc1ccc(OC)cc1 [anethole],,,"Measured value of CNV ([1]; ethanol solution including 1 wt % of each sample, % relative to 100% of blank (odorless stimulation)): 108%"
"COc1ccc(C=O)cc1 [anisaldehyde, p-methoxy benzaldehyde]",much stronger stimulative effect in comparison with conventional lemon oil,,Effective amount of anisaldehyde in the perfume ingredients ([1]; concluded from Table 2 (anisaldehyde in anethole)): ≥ 1 wt %
Cn1c(=O)c2c(ncn2C)n(C)c1=O [caffeine],,increase of amplitude of CNV,
O=C1CN=C(c2ccccc2)c2cc([N+](=O)[O-])ccc2N1 [nitrazepam],,decrease of amplitude of CNV,
